# Literature values in patent publication US10722518B2, “Oxazine derivative for use in the treatment or prevention of cerebral amyloid angiopathy” (Novartis AG, priority 2016, dated 2020).
# Test system: APP23 mice
# Details: aged APP23 mice treated for three months; cited from earlier work
smiles,measurement,value
Cc1cc(C#N)cnc1C(=O)Nc1ccc(F)c([C@]2(C)CO[C@@](C)(C(F)(F)F)C(N)=N2)c1 [NB360],effect on CAA-related microhaemorrhage (volumetric MRI),no effect
